Experimental data as given in US20030220406A1, “Solutizing agents” (priority 2000, published 2003).

Assay: Solubilizing power: test substances added to 10 g of solubilizer until the solubility limit was reached
Assay type: physicochemical
Description: Example 1 corresponds to the invention, Examples C1 and C2 are intended for comparison.

[1] = in comparison solubilizer C1 (PEG-40 Hydrogenated Castor Oil 100 % by weight)
[2] = in comparison solubilizer C2 (Cocoeth-8 100 % by weight)
[3] = in solubilizer of Example 1 (Cocoeth-8 40, PPG1-PEG9 Lauryl Glycol Ether 30, PEG-40 Hydrogenated Castor Oil 20, Water 10 % by weight)

| Compound | Solubility [1] [g/10 g solubilizer] | Solubility [2] [g/10 g solubilizer] | Solubility [3] [g/10 g solubilizer] |
| --- | --- | --- | --- |
| Cc1ccc(C=C2C(=O)C3(C)CCC2C3(C)C)cc1 (stereo not drawn) [4-Methylbenzylidene Camphor] | 0.50 | 0.38 | 1.10 |
| COc1ccc(C(=O)c2ccccc2)c(O)c1 [Benzophenone-3] | 0.40 | 0.20 | 0.44 |
| COc1ccc(/C=C/C(=O)OCCC(C)C)cc1 [Isoamyl Methoxycinnamate] | 0.60 | 0.70 | 1.10 |

Other lines, results leading:

| Solubility [1] [g/10 g solubilizer] | Solubility [2] [g/10 g solubilizer] | Solubility [3] [g/10 g solubilizer] | Compound |
| --- | --- | --- | --- |
| 0.45 | 0.60 | 1.60 | CCCCC(CC)COC(=O)C=Cc1ccc(OC)cc1 (stereo not drawn) [Octyl Methoxycinnamate] |
| 1.10 | 1.05 | 4.80 | CC1CCC(C(C)C)C(O)C1 (stereo not drawn) [Menthol] |
| 0.40 | 0.50 | 0.90 | Tocopherol |
